Reference: patent US20080112955A1, “METHOD AND COMPOSITION FOR PREVENTING PAIN IN SICKLE CELL PATIENTS” (TRF PHARMA, INC., priority 2002, published 2008)

Tests used:
P-selectin-Ig chimera = assay: nonstatic rotatory adherence assay: erythrocytes on immobilized P-selectin-Ig chimera; type: cell-based, human; conditions: for percent adherence of nonsickle cells to P-selectin with agent / percent adherence of sickle cells to P-selectin with agent: mean±SEM, 100% = untreated nonsickle erythrocytes on BSA or Siglec, 5 mM EDTA or sialidase; for reduction of adherence of nonsickle cells to P-selectin / reduction of adherence of sickle cells to P-selectin: 5 mM EDTA present or RBCs pretreated with 0.1 U/mL sialidase
Method: (§1) 400 ng bovine serum albumin (BSA; Sigma), a sialic acid-binding lectin (Siglec)-6-Ig chimera, mutated Siglec-7-Ig chimera, or P-selectin-Ig chimera was immobilized on microtiter wells. […] These chimeras were applied to the wells in 10 mM carbonate buffer overnight and then blocked with 0.5% BSA in Hanks buffered salt solution (University of California, San Francisco, Cell Culture Facility) before incubation with RBCs using a published rotatory adhesion assay. Erythrocyte adherence to BSA, Siglec-6, mutant Siglec-7, or P-selectin was measured as the number of RBCs observed in 8 random 0.04-mm2 fields for each condition. The adherence data are presented as percent adherence where 100% is the mean number of untreated nonsickle erythrocytes/field in a well in which BSA or Siglec was immobilized.
(§2) To determine whether sialic acid on erythrocytes is a recognition determinant for P-selectin, prior to testing RBC adherence the erythrocytes were treated with sialidase using a published method. Packed RBCs were mixed with an equal volume of buffer or 0.1 U/mL Vibrio cholerae sialidase (Calbiochem, San Diego). […] Efficacy of sialidase on RBCs was confirmed by agglutination with peanut extract lectin (Arachis hypogea lectin, Sigma).
(§3) For each experiment mean adherence was set arbitrarily at 100% for the control data. The mean adherence of data derived from perturbations of control conditions were calculated as a percentage relative to the control. The average of the means from replicate experiments was then calculated. The uncertainty of the estimate of the means from the data distributed in each set is described as SEM. An SEM of 0% resulted when control data sets were normalized to 100%. We used the paired one-tailed Student test to compare changes in adhesion resulting from different perturbations of the system.

[1] = tested on: human umbilical vein endothelial cells (HUVECs); assay: static gravity adherence assay with dip rinse: erythrocyte adherence to endothelial monolayers; type: cell-based; conditions: for percent adherence of nonsickle RBCs to thrombin-treated endothelium with agent / percent adherence of nonsickle RBCs to untreated endothelium with agent / percent adherence of sickle cells to thrombin-treated endothelium with agent / percent adherence of sickle cells to untreated endothelium with agent: mean±SEM, 100% = nonsickle RBCs on untreated HUVECs, mAbs 1:200, sLeX 100 μM, sialidase 0.1 U/mL; for percent adherence of nonsickle RBCs to thrombin-treated endothelium with agent / percent adherence of nonsickle RBCs to untreated endothelium with agent / percent adherence of sickle cells to thrombin-treated endothelium with agent / percent adherence of sickle cells to untreated endothelium with agent / reduction of adherence of nonsickle RBCs to untreated endothelium: sLac 500 μM; for reduction of adherence compared with sLac present: 100 μM sLeX; for reduction of adherence of nonsickle RBCs to thrombin-treated endothelium / reduction of adherence of nonsickle RBCs to untreated endothelium / reduction of adherence of sickle cells to thrombin-treated endothelium / reduction of adherence of sickle cells to untreated endothelium: static, vs no agent, sialidase 0.1 U/mL on RBCs; for reduction of adherence of nonsickle RBCs to thrombin-treated endothelium / reduction of adherence of sickle cells to thrombin-treated endothelium: HUVECs 0.1 U/mL thrombin 5 min; for reduction of adherence of nonsickle RBCs to thrombin-treated endothelium / reduction of adherence of sickle cells to thrombin-treated endothelium / reduction of adherence of sickle cells to untreated endothelium: mAbs 1:200, sLac 500 μM; for reduction of adherence of nonsickle RBCs to untreated endothelium / reduction of adherence of sickle cells to untreated endothelium: untreated HUVECs; for reduction of adherence of nonsickle RBCs to untreated endothelium: mAbs 1:200 on HUVECs; for reduction of adherence of sickle cells to thrombin-treated endothelium / reduction of adherence of sickle cells to untreated endothelium: sickle RBCs
Method: Thrombin treatment of human umbilical vein endothelial cells (HUVECs) and the static gravity adherence assay with dip rinse were performed as previously described. When 90% confluent, HUVECs (Clonetics, San Diego, Calif.) were treated with 0.1 U/mL thrombin (Sigma Chemicals, St Louis, Mo.) or medium alone for 5 minutes before assaying erythrocyte adherence. Adherent RBCs were counted microscopically in 8 randomly selected 0.15-mm2 fields for each study condition. The adherence data may be presented as percent adherence where 100% is the mean adherence of nonsickle RBCs to untreated HUVECs.
Because of potential modulatory effects of heparin on adherence, the static adherence assay was used to compare the adhesivity of sickle cells and autologous plasma according to whether they were prepared with citrate anticoagulant or with heparin. […] The contribution of P-selectin to thrombin-enhanced adherence was determined by comparing the effects on adherence of exposing HUVECs to no antibody, a 1:200 dilution of nonblocking P-selectin monoclonal antibodies (mAbs) AC1.2 (BD Pharmingen, San Diego, Calif.), or a 1:200 dilution of blocking P-selectin mAb 9E1 (R & D Systems, Minneapolis, Minn.).
(§4) To determine whether sialic acid on erythrocytes is a recognition determinant for P-selectin, prior to testing RBC adherence the erythrocytes were treated with sialidase using a published method. Packed RBCs were mixed with an equal volume of buffer or 0.1 U/mL Vibrio cholerae sialidase (Calbiochem, San Diego).
as §3

[2] = tested on: thrombin-treated HUVECs (endothelial cell P-selectin); assay: parallel plate flow adhesion of sickle erythrocytes to HUVECs; type: cell-based, human; conditions: n=10
Text: Blood samples obtained from subjects with sickle cell disease and from healthy control subjects, as approved by the Committee on Human Research at the University of California-San Francisco (UCSF), were drawn into citrate. The buffy coat was removed after the initial centrifugation and after each of 3 subsequent washes of the remaining erythrocytes in phosphate buffered saline (PBS) and one wash in HAH buffer (Hanks balanced salt solution [HBSS; UCSF Cell Culture Facility, San Francisco, Calif.], 1% bovine serum albumin [BSA, Fraction V; Sigma, St Louis, Mo.], 50 mM HEPES [N-2-hydroxyethylpiperazine-N′-2- ethanesulfonic acid; Sigma], pH 7.40). Erythrocytes to be used in flow adhesion studies were suspended to a 0.5% hematocrit. To assess for leukocyte contamination, the erythrocyte preparation was exposed to 10 μg/mL rhodamine 6G, which stains leukocytes but not erythrocytes, and washed 3 times in HAH. No leukocytes were detected in the erythrocyte suspensions prepared using the above protocol. […]
Rolling cells were defined as those sickle cells that were in the same microscopic focal plane as the immobile surface or endothelial monolayer and moving at a distinctly slower velocity than the bulk flow. Those cells determined to be rolling were in contact with the substrata throughout their entire transit through the field of observation, which excludes those cells in brief transient contact with the substrate. Data on rolling adherence are expressed as the mean numbers of rolling red blood cells (cells/mm^2) and the mean rolling velocity of these cells (mm/s) from multiple experiments; error is expressed as SEM. The microscopic field in which adherent cells were measured has an area of 0.15 mm^2 and a volume of 0.038 mm^3. […] The velocity of rolling cells was determined by the time required for a cell to roll across the 0.5-mm field (0.5 mm/s). […] Data on firm adhesion are expressed as the mean numbers of firmly adherent red blood cells in the area described above. Statistical significance was determined using the Student t test. […]

RBCs = assay: hemolysis of sialidase-treated RBCs by colorimetric spectrophotometry; type: cell-based, human; conditions: 0.1 U/mL sialidase
Method: as §2

Siglec-6-Ig chimera = assay: nonstatic rotatory adherence assay: erythrocytes on immobilized control Siglec-6-Ig chimera; type: cell-based, human; conditions: mean±SEM, RBCs pretreated with sialidase
Method: as §1
as §4, with “Diego). […]” for “Diego).”
For each experiment mean adherence was set arbitrarily at 100% for the control data. The mean adherence of data derived from perturbations of control conditions were calculated as a percentage relative to the control. The average of the means from replicate experiments was then calculated. […]

[3] = HUVECs treated with 0.1 U/mL thrombin for 5 minutes vs untreated
[4] = erythrocytes pretreated with 0.02% trypsin, data not shown

O=C(O)CN(CCN(CC(=O)O)CC(=O)O)CC(=O)O [EDTA]
percent adherence of nonsickle cells to P-selectin with agent (P-selectin-Ig chimera): 95%±11%
percent adherence of sickle cells to P-selectin with agent (P-selectin-Ig chimera): 177%±18%
reduction of adherence of nonsickle cells to P-selectin (P-selectin-Ig chimera): 35%
reduction of adherence of sickle cells to P-selectin (P-selectin-Ig chimera): 32%

CC(=O)NC1C(O)CC(OC2C(O)C(CO)OC(OC3C(CO)OC(O)C(NC(C)=O)C3OC3OC(C)C(O)C(O)C3O)C2O)(C(=O)O)OC1C(O)C(O)CO (stereo not shown) [sLeX, sialyl Lewis X (sLeX) tetrasaccharide]
percent adherence of nonsickle RBCs to thrombin-treated endothelium with agent [1]: 82%±41%
percent adherence of nonsickle RBCs to untreated endothelium with agent [1]: 55%±12%
percent adherence of sickle cells to thrombin-treated endothelium with agent [1]: 196%±38%
percent adherence of sickle cells to untreated endothelium with agent [1]: 91±8%
reduction of adherence compared with sLac present ([1]; nonsickle cells, thrombin-treated endothelial cells): 49%
reduction of adherence compared with sLac present ([1]; nonsickle cells, untreated endothelial cells, not significant): ~48%
reduction of adherence compared with sLac present ([1]; sickle cells, thrombin-treated endothelial cells): 36%
reduction of adherence compared with sLac present ([1]; sickle cells, untreated endothelial cells, not significant): ~37%

thrombin
decrease in rolling velocities of sickle cells [2, 3]: 26%
increase in number of rolling sickle cells [2, 3]: 54%
increase in number of firmly adhered sickle cells ([2]; thrombin treatment of HUVECs vs untreated): 130%

sialidase: Vibrio cholerae sialidase (Calbiochem) used to treat RBCs
hemolysis (RBCs): No hemolysis was detected
percent adherence of nonsickle cells to Siglec-6 after sialidase (Siglec-6-Ig chimera; nonsickle cells): 79%±13%
percent adherence of sickle cells to Siglec-6 after sialidase (Siglec-6-Ig chimera; sickle cells): 157%±18%
percent adherence of nonsickle cells to P-selectin with agent (P-selectin-Ig chimera): 88%±11%
percent adherence of sickle cells to P-selectin with agent (P-selectin-Ig chimera): 182%+17%
reduction of adherence of nonsickle cells to P-selectin (P-selectin-Ig chimera): no significant effect
reduction of adherence of sickle cells to P-selectin (P-selectin-Ig chimera): 33%
percent adherence of nonsickle RBCs to thrombin-treated endothelium with agent [1]: 68%±15%
percent adherence of nonsickle RBCs to untreated endothelium with agent [1]: 53%±13%
percent adherence of sickle cells to thrombin-treated endothelium with agent [1]: 282%±133%
percent adherence of sickle cells to untreated endothelium with agent [1]: 191%±67%
reduction of adherence of nonsickle RBCs to thrombin-treated endothelium [1]: 81%
reduction of adherence of nonsickle RBCs to untreated endothelium [1]: 47%
reduction of adherence of sickle cells to thrombin-treated endothelium [1]: 63%
reduction of adherence of sickle cells to untreated endothelium [1]: 36%

CC(=O)N[C@H]1[C@H]([C@H](O)[C@H](O)CO)O[C@@](O[C@H]2[C@@H](O)[C@@H](CO)O[C@@H](O[C@H]3[C@H](O)[C@@H](O)C(O)O[C@@H]3CO)[C@@H]2O)(C(=O)O)C[C@@H]1O (stereo partly shown) [sLac, 3′-sialyl-lactose]
percent adherence of nonsickle RBCs to thrombin-treated endothelium with agent [1]: 162%±28%
percent adherence of nonsickle RBCs to untreated endothelium with agent [1]: 105%±15%
percent adherence of sickle cells to thrombin-treated endothelium with agent [1]: 304%±74%
percent adherence of sickle cells to untreated endothelium with agent [1]: 144%±44%
reduction of adherence of nonsickle RBCs to thrombin-treated endothelium [1]: Neither did sLac reduce significantly
reduction of adherence of nonsickle RBCs to untreated endothelium [1]: not reduced significantly
reduction of adherence of sickle cells to thrombin-treated endothelium [1]: Neither did sLac reduce significantly
reduction of adherence of sickle cells to untreated endothelium [1]: not reduced significantly

B1: trypsin: protease used at 0.02% to pretreat erythrocytes (protein, UniProt P00760 24-246, looked up)
Serine protease 1: IVGGYTCGANTVPYQVSLNSGYHFCGGSLINSQWVVSAAHCYKSGIQVRLGEDNINVVEGNEQFISASKSIVHPSYNSNTLNNDIMLIKLKSAASLNSRVASISLPTSCASAGTQCLISGWGNTKSSGTSYPDVLKCLKAPILSDSSCKSAYPGQITSNMFCAGYLEGGKDSCQGDSGGPVVCSGKLQGIVSWGSGCAQKNKPGVYTKVCNYVSWIKQTIASN
adhesion of sickle and nonsickle cells to immobilized P-selectin (P-selectin-Ig chimera; [4]): did not reduce significantly
adherence of sickle and nonsickle cells to untreated and thrombin-treated endothelial cells [1, 4]: reduced substantially
